From patent US20050180982A1, “Cadherin-11 expression, an assay and treatment for cellular invasiveness” (THE UNIVERSITY OF BRITISH COLUMBIA, priority 1998, published 2005)

What was measured:
[1] = tested on: cad-11 in decidual explants; assay: Western blot of cad-11 in decidual explants; type: cell-based, human; set-up: dose or concentration left out as unconfirmed
Protocol: Co-cultures of decidua parietalis and villous placenta were established on a three-dimensional gel of rat tail collagen. The decidua and the villous tissue were cut into 1-2 mm cubes, explants were placed in 35 nun culture dishes containing 0.1 ml of the collagen mixture. After the gel had formed, a piece of villous tissue, suspended in 0.05 ml of culture medium was placed on to the exposed decidual surface. After 2 hours, the plates were flooded with culture medium. Stable adhesion between the villous and decidual tissues occurred within 48 hours. Samples are harvested after 48, 72, or 96 hours of culture. Tissues were embedded in OCT compound, snap frozen, and frozen section prepared. Blocks containing the co-cultures were cut in-full in order to obtain information about the three dimensional aspect of the contact sites. Contact sites were identified by hematoxylin staining and confirmed by immunostaining for cytokeratin. In the areas of contact, there was cytotrophoblast layering leading to localized erosion of the syncytial trophoblast and the formation of an extravillous column, which penetrates the underlying decidual explant.
In order to determine whether the cad-11 antisense oligonucleotides could decrease cad-11 expression in tissue explants, decidual explants were cultured in the presence of OB-1 or OB-3 (5 M) for 24 hours.

[2] = tested on: cad-11 RNA transcript in human granulosa cells; assay: Specificity of antisense in granulosa cells, Northern blot, cad-11 probe; type: cell-based; set-up: dose or concentration left out as unconfirmed; settings: 24 hours, dose-dependent manner for OB-1
Protocol: (§1) In order to determine the specificity of OB-1, the effect of OB-1 was determined in human granulosa cells. Human granulosa cells express three cadherin subtypes (cad-11, cad-6 and N-cad) as they undergo spontaneous luteinization in culture. Granulosa cells which had been cultured for 36 hours were treated with OB-1 or OB-3 (0.5-5 M). The cultures were maintained for a further 24 hours, after which the cells were harvested for Northern analysis. Northern blots were probed with cad-11, cad-6, or N-cadherin (neural cadherin) cDNA probes as previously described. OB-1 caused a reduction in the levels of the cad-11 RNA transcript in a dose-dependent manner but had no effect on cad-6 or N-cadherin mRNA levels. In contrast.

[3] = tested on: BeWo choriocarcinoma cells; assay: BeWo choriocarcinoma cells cultured with cAMP, differentiation and fusion; type: cell-based
[4] = tested on: cad-6 mRNA in human granulosa cells; assay: Specificity of antisense in granulosa cells, Northern blot, cad-6 probe; type: cell-based; settings: 0.5-5 M, 24 hours
Protocol: as §1

human decidual cells [5] = tested on: human decidual cells
[6] = tested on: Villous cytotrophoblasts isolated from the human term placenta, cultured 72 hours
[7] = tested on: N-cadherin mRNA in human granulosa cells; assay: Specificity of antisense in granulosa cells, Northern blot, N-cadherin probe; type: cell-based; settings: 0.5-5 M, 24 hours
Protocol: as §1

villous cytotrophoblasts [8] = assay: Reversibility of oligonucleotide effects on villous cytotrophoblasts; type: cell-based, human; settings: 48 hours with oligonucleotide, washed, further 24 hours
Protocol: To determine whether the effects of OB-1 on villous cytotrophoblasts are reversible, cells were cultured in the presence of OB-1 or OB-3 for 48 hours. The cells were washed thoroughly with PBS. The culture medium was then replaced and the cells cultured for a further 24 hours. […] The majority of cells (90%) detached from the culture and dish. Cad-11 was not detected in the remaining cells.

[9] = tested on: cad-11 in cytotrophoblasts isolated from term placenta; assay: Western blot of cad-11 in term placenta cytotrophoblasts treated with oligonucleotide; type: cell-based, human; settings: 5 NI, further 24 or 48 hours
Protocol: (§2) Cellular aggregation in these cultures is observed after approximately 12 hours, with syncytial structures being observed after approximately 24 hours. After 72 hours, multinucleated syncytium is the predominant cell feature in these cultures. As described above, the terminal differentiation and fusion of these cells is associated with an increase in cad-11 mRNA and protein expression levels and a concomitant decrease in E-cad expression.
(§3) The effects of OB-1 on the differentiation of these trophoblasts isolated from term placenta was determined. Cytotrophoblasts were cultured for 0, 6, 12 or 24 hours before being treated with either OB-1 or OB-3 (5 NI). The cultures were maintained for a further 24 or 48 hours, after which the cells were harvested for Western blot analysis.

human decidual cells [10] = assay: Effect on primary cultures of human decidual cells; set-up: cell interactions and attachment: dose or concentration left out as unconfirmed; settings: for 24 hours
villous cytotrophoblasts [11] = assay: P4 and hCG in culture medium of villous cytotrophoblasts (functional differentiation); type: cell-based, human; settings: compared with OB-3 treated cells
Protocol: To determine whether reduced cad-11 expression in villous cytotrophoblasts would affect the functional differentiation of the primary cell cultures, concentrations of P4 and hCG were measured in the culture medium. The number of cells present in these cell cultures was determined by DNA content.

[12] = tested on: PC3 cells treated with TGF-1
[13] = tested on: Cos-1 cells transfected with the steroid acute regulatory protein; assay: Non-specific effects on cell number and steroidogenic capacity in Cos-1 cells; type: cell-based; set-up: cell number (Coulter cell counter): dose or concentration left out as unconfirmed
Protocol: Non-specific effects of the antisense oligonucleotides on cell viability and the steroidogenic capacity of cells was determined using Cos-1 cells transfected with the steroid acute regulatory protein (from Dr. J. F. Strauss, III. University of Pennsylvania, Philadelphia, Pa.). […] The COS-1 cells were cultured in the presence or absence of varying concentrations of OB-1 OR OB-3 (0.5-5 M) for 48 hours. The cell number present in each culture was determined using a Coulter™ cell counter and P4 concentrations present in the culture medium using a Progesterone RIA™ kit. As determined by these parameters.

[14] = tested on: E-cad in cytotrophoblasts isolated from term placenta; assay: Western blot of E-cad in term placenta cytotrophoblasts treated with oligonucleotide; type: cell-based, human; settings: 5 NI, further 24 or 48 hours
Protocol: as §2, §3

[15] = tested on: PC3 cells treated with TGF-1; assay: Effect of oligonucleotides on PC3 cells treated with TGF-1; set-up: cell interactions and attachment: dose or concentration left out as unconfirmed; settings: for 24 hours
[16] = tested on: cytotrophoblasts isolated from term placenta; assay: Morphology of cytotrophoblasts by light microscopy and indirect immunofluorescence; type: cell-based, human
Text: The effect of OB-1 and OB-3 on the morphology of the cytotrophoblast was examined by light microscopy and indirect immunofluoresence.

OB-1: cad-11 antisense oligonucleotide, 18 mer, phosphothiorate: GGC GGC TTG TAA ACA GTA (SEQ ID NO:1) (antisense GGCGGCTTGTAAACAGTA; all phosphorothioate, sugars by position and methylation of C not given here; listed as Homo sapiens)
cad-11 expression [1]: significantly reduced | levels of the cad-11 RNA transcript [2]: reduction | cellular differentiation and fusion ([3]; cells cultured in the presence of cAMP for 12 hours): inhibiting cellular differentiation and fusion | membrane integrity of the syncytial structures ([3]; syncytial structures formed after 24 hours of cAMP): disrupted the membrane integrity | cad-6 mRNA levels [4]: no effect | viability by trypan blue staining (human decidual cells [5]): no longer viable | viability of syncytial structures (trypan blue) [6]: no longer viable | structures observed (phase contrast microscopy) ([6]; oligonucleotide added after 72 hours of culture, OB-1 for 24 hours): cellular debris | N-cadherin mRNA levels [7]: no effect | cad-11 in the remaining cells (villous cytotrophoblasts [8]): not detected | cell viability after wash-out (villous cytotrophoblasts [8]): no longer viable | cells detached from the culture dish (villous cytotrophoblasts [8]): 90% | cad-11 expression with time in culture [9]: failed to up-regulate | cell interactions and attachment (human decidual cells [10]): lose interactions with one another and detach from the plastic in a dose-dependent manner | levels of P4 in the culture medium (villous cytotrophoblasts [11]): significantly lower | levels of hCG in the culture medium (villous cytotrophoblasts [11]): significantly lower | viability by trypan blue staining [12]: no longer viable | steroidogenic capacity (P4 concentrations in culture medium, RIA) ([13]; 0.5-5 M for 48 hours): did not have a significant effect | cell number (Coulter cell counter) ([13]; for 48 hours): did not have a significant effect | E-cad levels [14]: remained constant | cell interactions and attachment [15]: lose interactions with one another, and detach from the plastic in a dose-dependent manner | composition of cellular structures formed (fusion) ([16]; indirect immunofluorescence for E-cadherin): mononucleate cytotrophoblasts | ability of the cytotrophoblasts to aggregate ([16]; light microscopy): did not appear to affect
